Assay results: patent US20140206534A1, “FORMULATION” (SYNGENTA LIMITED, priority 2011, published 2014)

What was measured:
[1] = Visual release rate test of Bitrex in water; format: physicochemical; conditions: after 15 minutes; 0.4 mg agitated in 10 ml water
Experimental: 0.4 mg of sample was agitated in 10 ml of water and observed over 8 hours.

[2] = UV/Vis release rate measurement of Bitrex in water; format: physicochemical; conditions: 100 mg in 40 ml water, shaken
Experimental: 2 ml of the mixture was removed at each time interval for analysis.

## CC[N+](CC)(CC(=O)Nc1c(C)cccc1C)Cc1ccccc1 [Uncoated Bitrex, Denatonium benzoate]
[1]
  visual observation of dissolution: fully dissolved
[2]; 5 minutes
  % release of Bitrex relative to the total content: 99.6%
[2]; 15 minutes
  % release of Bitrex relative to the total content: 99.8%
